One experiment has as its target T1, Adenosine receptor A1 (Homo sapiens, UniProt P30542).
T1 sequence (P30542 whole entry): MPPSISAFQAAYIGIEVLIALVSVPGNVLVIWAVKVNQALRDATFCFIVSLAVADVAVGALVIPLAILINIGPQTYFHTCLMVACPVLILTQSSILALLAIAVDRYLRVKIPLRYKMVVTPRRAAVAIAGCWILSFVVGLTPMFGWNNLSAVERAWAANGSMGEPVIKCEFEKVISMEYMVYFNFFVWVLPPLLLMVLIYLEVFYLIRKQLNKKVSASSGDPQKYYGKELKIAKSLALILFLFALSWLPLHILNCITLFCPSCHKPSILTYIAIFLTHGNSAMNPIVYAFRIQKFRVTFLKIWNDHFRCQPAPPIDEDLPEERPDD
The experiment is described as follows: Displacement of [3H]DPCPX from recombinant human A1 receptor expressed in CHO cell membranes measured after 90 mins by scintillation counting method. For orientation: Displacement assays read how much labelled ligand stays bound in the presence of the test substance.

The target of experiment [1] is T2, Adenosine receptor A3 (Homo sapiens) (UniProt P0DMS8).
T2 sequence (whole entry): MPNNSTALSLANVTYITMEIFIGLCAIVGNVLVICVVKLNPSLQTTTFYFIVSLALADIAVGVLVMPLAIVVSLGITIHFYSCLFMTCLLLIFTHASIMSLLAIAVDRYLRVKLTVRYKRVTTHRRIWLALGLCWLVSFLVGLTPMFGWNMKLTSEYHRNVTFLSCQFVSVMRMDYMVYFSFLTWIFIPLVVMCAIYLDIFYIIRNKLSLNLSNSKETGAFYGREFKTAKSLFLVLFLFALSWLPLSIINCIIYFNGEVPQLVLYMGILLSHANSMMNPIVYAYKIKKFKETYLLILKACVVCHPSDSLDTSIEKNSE
The experiment is described as follows: Displacement of [125I]-ABMECA from recombinant human A3 receptor expressed in CHO cell membranes at 1 uM measured after 120 mins by scintillation counting method relative to control.

Experiment [2] concerns the target T3, Adenosine receptor A2b (Homo sapiens) (UniProt P29275).
T3 sequence (whole entry): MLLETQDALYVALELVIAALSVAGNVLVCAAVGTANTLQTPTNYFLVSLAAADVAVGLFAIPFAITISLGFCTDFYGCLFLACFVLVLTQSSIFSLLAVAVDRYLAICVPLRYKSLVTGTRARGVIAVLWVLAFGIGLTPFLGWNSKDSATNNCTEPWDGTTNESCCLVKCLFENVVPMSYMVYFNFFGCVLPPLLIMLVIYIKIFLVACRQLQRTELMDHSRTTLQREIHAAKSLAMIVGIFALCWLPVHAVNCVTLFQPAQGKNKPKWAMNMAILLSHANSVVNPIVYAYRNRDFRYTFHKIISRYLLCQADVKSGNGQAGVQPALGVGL
Kind of experiment: Antagonist activity at recombinant human A2B receptor expressed in CHO cells assessed as inhibition of NECA-stimulated cAMP production at 0.001 to 1 uM by Alpha screen assay relative to control. In kind it is functional, cell-based.

Experiment [3] has as its target T4, Adenosine receptor A2a (Homo sapiens, UniProt P29274). The experiment is described as follows: Displacement of [3H]-ZM241385 from recombinant human A2A receptor expressed in CHO cell membranes at 1 uM measured after 60 mins by scintillation counting method relative to control.
For the next experiment, the target named is T5, Adenosine receptor A3 (Homo sapiens, UniProt P0DMS8).
T5 sequence (P0DMS8 whole entry): T2 sequence (whole entry)
Kind of experiment: Displacement of [125I]-ABMECA from recombinant human A3 receptor expressed in CHO cell membranes measured after 120 mins by scintillation counting method.

Experiment [4] has as its target T6, Adenosine receptor A1 (Homo sapiens) (UniProt P30542).
T6 sequence (whole entry): T1 sequence (P30542 whole entry)
The experiment is described as follows: Displacement of [3H]DPCPX from recombinant human A1 receptor expressed in CHO cell membranes at 1 uM measured after 90 mins by scintillation counting method relative to control.

The target of experiment [5] is T4, Adenosine receptor A2a. The experiment is described as follows: Displacement of [3H]-ZM241385 from recombinant human A2A receptor expressed in CHO cell membranes measured after 60 mins by scintillation counting method.

pKi: −log10 of the molar value.

T4 sequence (P29274 whole entry): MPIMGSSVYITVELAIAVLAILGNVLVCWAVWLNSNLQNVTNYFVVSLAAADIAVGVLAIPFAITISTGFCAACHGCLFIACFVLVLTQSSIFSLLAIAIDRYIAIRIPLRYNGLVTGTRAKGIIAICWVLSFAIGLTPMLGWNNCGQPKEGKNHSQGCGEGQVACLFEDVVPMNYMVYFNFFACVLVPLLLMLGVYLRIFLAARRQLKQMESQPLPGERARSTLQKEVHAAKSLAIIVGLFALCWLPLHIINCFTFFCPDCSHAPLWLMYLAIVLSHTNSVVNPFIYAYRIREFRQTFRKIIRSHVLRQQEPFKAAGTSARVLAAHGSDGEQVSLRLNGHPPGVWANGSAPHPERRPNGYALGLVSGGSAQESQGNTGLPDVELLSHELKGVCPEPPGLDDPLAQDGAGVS

Consider `CCn1nc(-c2cccs2)c2sccc2c1=O`, for which the pKi (as a rule, the negative decadic logarithm of the Ki, by convention in mol/L) at Adenosine receptor A1 was 6.14. For the same compound, the inhibition (in experiment [1]; in experiment [2]; on Adenosine receptor A2a [3]) was 1% in each case.
`Nn1nc(-c2nccs2)c2sccc2c1=O`: on Adenosine receptor A1, the negative logarithm of the Ki (pKi) is 5.54. Besides, the inhibition (commonly the change of the read-out against control, counted positive when it falls) in experiment [1] amounted to 5%; in experiment [2], 1%; at Adenosine receptor A2a [3], 15%.
For `CC(C)n1nc(-c2ccccn2)c2sccc2c1=O`, in that order: 6.04, 2%, 1% and 2%.
For `Nn1nc(-c2cccs2)c2sccc2c1=O`, in that order: 5.45, 1%, 1% and 1%.
`CCn1nc(-c2ccccc2)c2sccc2c1=O`: the figures for the pKi on Adenosine receptor A1 and on Adenosine receptor A3 were 5.57 and 5.59, respectively. Further, the inhibition turned out to be 1% in experiment [2] and 17% at Adenosine receptor A2a [3].
In the case of `CCc1nn(CC)c(=O)c2cc(-c3ccccc3)sc12`, the values for the inhibition in experiment [4], in experiment [1] and in experiment [2] were 4%, 10% and 1%, respectively. The negative logarithm of the Ki (pKi) at Adenosine receptor A2a [5] was 5.50.
On to `CCn1nc(-c2ccccn2)c2sccc2c1=O`, for which the pKi is 6.11 at Adenosine receptor A1 and 5.54 at Adenosine receptor A2a [5]. In addition, the inhibition in experiment [1] and in experiment [2] was 1% each time.
Regarding `CCn1nc(-c2nccs2)c2sccc2c1=O`, the figures for the pKi on Adenosine receptor A1, at Adenosine receptor A3 and on Adenosine receptor A2a [5] were 6.95, 5.53 and 5.60, respectively. Besides, in experiment [2], the inhibition is 1%.
`Nn1nc(-c2ccccn2)c2sccc2c1=O`: on Adenosine receptor A1, the pKi is 5.43. Further, the inhibition (in experiment [1]; in experiment [2]; on Adenosine receptor A2a [3]) was 1% in each case.
`CCc1nn(CC)c(=O)c2ccsc12`: the inhibition in experiment [4] was 3%; in experiment [1], 14%; in experiment [2], 1%; on Adenosine receptor A2a [3], 7%.
Take `O=c1[nH]nc(-c2nccs2)c2sccc12`: the pKi at Adenosine receptor A1 is 5.94; on Adenosine receptor A2a [5], 5.47. Besides, the inhibition in experiment [1] and in experiment [2] was 1% throughout.
As for `Nn1nc(-c2ccccc2)c2sccc2c1=O`, the inhibition in experiment [4] was 16%; in experiment [1], 1%; in experiment [2], 1%; at Adenosine receptor A2a [3], 12%.

The values are drawn from ChEMBL document CHEMBL4118119, “Development of novel pyridazinone-based adenosine receptor ligands” (Bioorg Med Chem Lett, 2018).
